Experimental findings from article PMC6035319 (Saudi Pharmaceutical Journal : SPJ, 2018) are described below.

Molecules are shown by their SMILES.

One assay concerns the target T1, CYP1A2 (Homo sapiens, UniProt P05177).
T1 sequence (P05177 2-516): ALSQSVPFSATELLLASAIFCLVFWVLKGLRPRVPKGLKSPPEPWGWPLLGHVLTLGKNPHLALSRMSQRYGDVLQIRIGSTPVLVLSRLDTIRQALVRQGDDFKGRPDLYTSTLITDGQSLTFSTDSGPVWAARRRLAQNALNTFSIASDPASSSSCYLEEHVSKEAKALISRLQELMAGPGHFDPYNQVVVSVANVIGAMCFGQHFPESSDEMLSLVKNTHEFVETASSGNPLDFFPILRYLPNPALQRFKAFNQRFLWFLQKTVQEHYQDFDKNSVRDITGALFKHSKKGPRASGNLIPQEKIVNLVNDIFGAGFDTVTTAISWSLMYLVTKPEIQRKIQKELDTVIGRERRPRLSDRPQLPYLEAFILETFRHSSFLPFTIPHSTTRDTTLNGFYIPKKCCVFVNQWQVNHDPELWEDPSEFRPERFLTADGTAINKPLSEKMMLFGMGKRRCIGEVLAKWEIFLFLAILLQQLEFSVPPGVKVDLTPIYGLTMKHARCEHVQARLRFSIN
Briefly: HPLC of acetaminophen formed from phenacetin in pooled human liver microsomes. The class given is biochemical. A general note: Liver microsomes are vesicles of endoplasmic reticulum, rich in cytochrome P450 enzymes.

The target in another assay is CYP3A4 (Homo sapiens, UniProt P08684). Format: biochemical.
CYP3A4, sequence (P08684 2-503): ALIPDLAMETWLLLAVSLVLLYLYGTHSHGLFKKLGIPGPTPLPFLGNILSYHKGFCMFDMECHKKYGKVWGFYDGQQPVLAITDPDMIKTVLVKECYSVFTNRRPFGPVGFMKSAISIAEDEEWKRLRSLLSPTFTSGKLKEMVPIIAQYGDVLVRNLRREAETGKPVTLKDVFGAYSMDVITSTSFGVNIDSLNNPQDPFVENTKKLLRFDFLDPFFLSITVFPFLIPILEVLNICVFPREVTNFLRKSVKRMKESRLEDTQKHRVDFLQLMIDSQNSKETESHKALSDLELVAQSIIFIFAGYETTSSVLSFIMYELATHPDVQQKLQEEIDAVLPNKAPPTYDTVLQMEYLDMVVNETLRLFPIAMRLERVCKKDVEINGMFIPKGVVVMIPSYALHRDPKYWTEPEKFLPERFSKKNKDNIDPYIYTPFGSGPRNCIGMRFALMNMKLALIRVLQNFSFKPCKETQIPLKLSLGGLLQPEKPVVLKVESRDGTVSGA

As usually defined, the IC50 is the concentration that inhibits the measured activity by half. Read a low IC50 as higher potency. Turning to `CC1=CC(=O)C(C(C)C)=CC1=O` [thymoquinone], the IC50 on CYP1A2 was found to be 26.5 ± 2.9 µM; against CYP3A4 it was 25.2 ± 3.1 µM.
